# Assay results reported in US20200093786A1, “S[…] OF CANNABIS FOR TREATING MULTIPLE MYELOMA” (One World Cannabis LTD, priority 2014, published 2020).
# Where two headings read alike, the source gives them in different places.
# Key:
# [1] = test system: CD138+ cells from myeloma patients; experiment: XTT cell viability and combination index, CD138+ cells from bone marrow aspirate of MM patients (Example 8); assay type: cell-based, human; settings: for survival of MM cells (in words): CD138+ patient cells, each of the patients tested, concentration dependent manner, FIG. 4; for IC50: Homo sapiens, read-out: dose that caused 50% of MM cell death (IC50); for sensitivity of the patient's cells / more effective combination (in words): CD138+ cells, 48 hours
# Description: This conversion only occurs in viable cells.
# Peripheral blood samples from MM patients and healthy donors are processed by Ficoll density gradient centrifugation to isolate peripheral blood mononuclear cells (PBMCs). […] For co-culture assays MM cells are stained with CFSE, cultured in the presence of HS-5 human stroma cell line, treated with the drugs and their viability is evaluated by counterstained with PI and cell viability evaluation by flow cytometer analysis.
# XTT assay was performed to assess cell viability. Each treatment was performed in triplicate and presented as mean±SE.
# Combination Index (CI) value <1, =1, >1 indicates synergism, additive effect, and antagonism, respectively. Pat 1, 2, 3 indicate the patient number.
# [2] = test system: RPMI-MR20 (mitoxantrone-resistant cells); experiment: XTT cell viability, mitoxantrone-resistant MM cells (Example 9); assay type: cell-based; settings: RPMI-MR20, 48 hours, concentration dependent manner, FIG. 5
# Description: (§1) RPMI-MR20, RPMI-LR5 and RPMI-Dox40 were cultured during 48 hours with CBD (FIG. 5A), THC (FIG. 5B), CBD:THC 1:1 (FIG. 5C), CBD:THC 1:5 (FIG. 5D) and CBD:THC 5:1 (FIG. 5E). XTT assay was performed to assess cell viability.
# [3] = test system: RPMI-LR5 (LEN-resistant cells); experiment: XTT cell viability, LEN-resistant MM cells (Example 9); assay type: cell-based; settings: RPMI-LR5, 48 hours, concentration dependent manner, FIG. 5
# Description: as §1
# [4] = test system: RPMI-Dox40 (DOXO-resistant cells); experiment: XTT cell viability, DOXO-resistant MM cells (Example 9); assay type: cell-based; settings: RPMI-Dox40, 48 hours, concentration dependent manner, FIG. 5
# Description: as §1
# MM cells = settings: CBD by itself or in synergy with bortezomib; reference [8]; cited from earlier work
structure (smiles),measurement,setting,value
"CCCCCc1cc(O)c2c(c1)OC(C)(C)[C@@H]1CCC(C)=C[C@@H]21 [THC, Tetrahydrocannabinol]",survival of MM cells (in words),[1],decreased survival
same,IC50,[1]; 48 h,6 to 35 µM
same,sensitivity of the patient's cells / more effective combination (in words),[1]; Patient 3 (VCD),less sensitive to THC than to CBD
same,survival of MM cells (in words),[2],decreased survival
same,survival of MM cells (in words),[3],decreased survival
same,survival of MM cells (in words),[4],decreased survival
"C=C(C)[C@@H]1CCC(C)=C[C@H]1c1c(O)cc(CCCCC)cc1O [CBD, Cannabidiol]",survival of MM cells (in words),[1],decreased survival
same,IC50,"[1]; CD138+ cells of patients 1 to 3, 48 hours, FIG. 4D",6.7 to 12.5 µM
same,sensitivity of the patient's cells / more effective combination (in words),"[1]; Patient 1 (SM, no treatment)",less sensitive to CBD than to THC
same,sensitivity of the patient's cells / more effective combination (in words),[1]; Patient 2 (VTD),slightly more sensitive to CBD than to THC
same,survival of MM cells (in words),[2],decreased survival
same,survival of MM cells (in words),[3],decreased survival
same,survival of MM cells (in words),[4],decreased survival
same,growth of MM cells (in words),MM cells,strongly inhibited growth
